Results reported in patent US7658916B2, “Methods of enhancing lysosomal storage disease therapy by modulation of cell surface receptor density” (Genzyme Corporation, priority 2002, dated 2010).

Assays:
Conditions in all cases: separate experiment, FIG. 9
[1] = system: normal fibroblast cells; assay: Alpha-galactosidase uptake by normal fibroblasts in vitro; type: cell-based, human
Description: Before the uptake assay, the cells were washed once with PBS and once with DMEM minus glucose media (Gibco#11966-025), then the cells were starved in 1.5 ml of DMEM minus glucose media for 1 hour at 37° C. […] The lysates were assay for alpha-galactosidase activity with 4-MU-galactoside (Sigma #M-7633) as substrate and normalized to protein content.
Human skin fibroblasts (ATCC# CRL-1502) were grown at 37° C. under 5% CO2 in MEM with Earle's balanced salts, 2× essential and non-essential amino acids (NEAA) (Gibco# 11130-051, 11140-050) and vitamin (Gibco# 1120-052), 20% fetal bovine serum (Gibco# 16000-044, not heat-inactivated) plus 1× penicillin/streptomycin. The pH of the media was adjusted to approximately 7 with sodium bicarbonate (Gibco #25080-094).

[2] = system: Fabry fibroblast cells; assay: Alpha-galactosidase uptake by Fabry fibroblasts in vitro; type: cell-based
Description: Before the uptake assay, the cells were washed once with PBS and once with DMEM minus glucose media (Gibco#11966-025), then the cells were starved in 1.5 ml of DMEM minus glucose media for 1 hour at 37° C. After starvation, the cells were switched to uptake media (DMEM with or without glucose, plus 4 mg/ml BSA, 2.5 mM beta-glycerophosphate (Sigma #G-6376), 25 mM Hepes, pH 6.8. Insulin (Calbiochem, #40769), M6P (Sigma # M-6876) and 2 μg/ml recombinant human alpha-galactosidase (as a model protein because of its better M6P phosphylation) were added as indicated in FIGS. 7A and 7B. Uptake of enzyme was continued for 4 hours at 37° C. After uptake, the cells were washed twice with PBS containing 1 mM M6P and once with PBS, then lysed in alpha-galactosidase assay buffer (50 mM sodium citrate, […]) plus 1% Triton X-100 and protease inhibitors. The lysates were assay for alpha-galactosidase activity with 4-MU-galactoside (Sigma #M-7633) as substrate and normalized to protein content.
Human skin fibroblasts (ATCC# CRL-1502) were grown at 37° C. under 5% CO2 in MEM with Earle's balanced salts, 2× essential and non-essential amino acids (NEAA) (Gibco# 11130-051, 11140-050) and vitamin (Gibco# 1120-052), 20% fetal bovine serum (Gibco# 16000-044, not heat-inactivated) plus 1× penicillin/streptomycin. […]

[3] = system: Hep 3B cells; assay: Alpha-galactosidase uptake by Hep3B cells (hepatocytes) in vitro; type: cell-based
Description: Muscles are the major target tissues for enzyme replacement therapy of Pompe disease due to the lack of acid alpha-glucosidase. To determine if the M6P/IGF-II receptor-mediated lysosomal enzyme uptake pathway can be augmented by insulin/glucose, the effects of insulin/glucose were analyzed on induced muscle cells (myotubes) in vitro. L6 myoblasts (or induced myotubes) and Hep3B cells were cultured in 6-well dishes. Rat L6 myoblasts (ATCC# CRL-1458) were cultured at 37° C. under 5% CO2 in VitaCell DMEM media (ATCC# 30-2002) with 4 mM L-glutamine, 10% fetal bovine serum (Gibco #16000-044) and 1× penicillin/streptomycin. Once confluent, cells were switched to VitaCell DMEM plus 2% horse sera (Gibco# 26050-088) and 1× penicillin/streptomycin. Media were changed every 3 days and at day 9-10, myotubes could be observed as multinuclear tubes. About 30-40% of the myoblasts formed myotubes. Cells were used for uptake assay at day 10. Hep3B cells were grown in MEM-eagle (Gibco# 11960-044) with 10% FBS, 1×NEAA, 1× sodium pyruvate and 1× penicillin/streptomycin.
Before the uptake assay, the cells were washed once with PBS and once with DMEM minus glucose media (Gibco#11966-025), then the cells were starved in 1.5 ml of DMEM minus glucose media for 1 hour at 37° C. […]

insulin: Insulin (Calbiochem, #40769)
about 200%: alpha-galactosidase uptake by normal fibroblast cells increased to [1] | alpha-galactosidase uptake by Fabry fibroblast cells increased to [2] | alpha-galactosidase uptake by Hep 3B cells increased to [3]
